Test results as given in article PMC6965176, “Targeting Forward and Reverse EphB4/EFNB2 Signaling by a Peptide with Dual Functions” (Scientific Reports, 2020).
Non-standard residues stand in square brackets, D forms with d. Residues, ends and D or L forms follow the SMILES beside them. No end group written: not given here.

Key:
EphB4 = molecular target: T1, EphB4 (Homo sapiens, UniProt P54760); experiment: SPR (BIACore) binding of peptides to immobilized EphB4; settings: Table S1; SPR BIACore, EphB4 immobilized on CM5 chip, 25°C, HBSEP buffer pH 7.4, peptides 1.6-800 nM, duplicate, KD = Koff/Kon, 1:1 Langmuir model
T1 construct: purchased R&D Systems
T1 sequence (P54760 16-987): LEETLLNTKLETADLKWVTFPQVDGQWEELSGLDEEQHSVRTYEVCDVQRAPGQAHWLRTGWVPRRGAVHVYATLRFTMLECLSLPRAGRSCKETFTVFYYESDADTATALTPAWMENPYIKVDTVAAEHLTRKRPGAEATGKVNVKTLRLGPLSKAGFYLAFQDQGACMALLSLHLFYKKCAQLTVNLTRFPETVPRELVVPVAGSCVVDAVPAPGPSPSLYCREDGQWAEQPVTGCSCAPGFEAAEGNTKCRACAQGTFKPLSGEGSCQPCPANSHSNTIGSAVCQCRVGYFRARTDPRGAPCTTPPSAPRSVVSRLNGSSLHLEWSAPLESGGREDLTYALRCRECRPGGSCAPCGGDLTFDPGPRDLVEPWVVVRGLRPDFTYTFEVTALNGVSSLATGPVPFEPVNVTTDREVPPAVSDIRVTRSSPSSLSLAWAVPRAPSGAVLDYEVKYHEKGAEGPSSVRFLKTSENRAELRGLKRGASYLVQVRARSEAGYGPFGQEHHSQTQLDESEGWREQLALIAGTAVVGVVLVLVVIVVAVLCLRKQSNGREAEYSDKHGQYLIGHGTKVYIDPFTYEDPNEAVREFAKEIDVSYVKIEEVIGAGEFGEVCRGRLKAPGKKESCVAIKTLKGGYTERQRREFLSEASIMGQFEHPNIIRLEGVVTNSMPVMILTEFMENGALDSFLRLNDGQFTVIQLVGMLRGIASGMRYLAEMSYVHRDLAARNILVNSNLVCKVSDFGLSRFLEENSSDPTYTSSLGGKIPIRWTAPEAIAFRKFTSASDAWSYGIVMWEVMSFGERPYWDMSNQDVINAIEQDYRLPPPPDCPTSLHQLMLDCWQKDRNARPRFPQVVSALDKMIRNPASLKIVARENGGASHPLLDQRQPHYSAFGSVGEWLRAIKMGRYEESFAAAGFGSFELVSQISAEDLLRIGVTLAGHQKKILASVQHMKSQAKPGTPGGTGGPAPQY
From the text: Surface plasmon resonance (SPR) binding and competition assays.
Immunoblotting, immunoprecipitation, and co-immunoprecipitation.

[1] = systemic exposure; cited from earlier work
From the text: Our group previously employed CCPM successfully to improve pharmacokinetics and enhance peptide stability for in vivo imaging applications[28]–[31]. The cross-linked core of CCPM prevents premature micelle disintegration, while the brush-like polyethylene glycol forms a dense protective layer on the micelle surface that minimizes micelle uptake by the organs of the mononuclear phagocytic system.

[2] = molecular target: T2, EphB4, purified recombinant human (rhEphB4) (human, UniProt P54760 16-987); experiment: SPR; EphB4 immobilised on sensor chips, peptides or CCPM-BIDEN-AP injected; BIACore 3000; BIDEN-AP data fitted to a 1:1 mass transfer interaction model; details in the Supplementary Information; settings: both partners purified
[3] = molecular target: T2, EphB4, purified recombinant human …; experiment: SPR; competition: serial dilutions of BIDEN-AP (2 nM to 1000 nM) mixed with human EphB4 (30 nM) and injected onto EFNB2-Fc-coated CM-5 chips; settings: both partners purified
recombinant human EphB4 = molecular target: T3, recombinant human EphB4 (human, UniProt P54760 16-539); experiment: SPR; BIACore 3000; rhEphB4 amine-coupled to CM5 chips; peptides injected at 1.6 nM to 800 nM, 30 uL/min, in duplicate; 25 C; HBSEP buffer (0.01 M HEPES pH 7.4, 0.15 M NaCl, 3 mM EDTA, 0.005% P20); 1:1 Langmuir binding model, KD = Koff/Kon; settings: both partners purified
T3 construct: EphB4 (ephrin type-B receptor 4), human, recombinant; Amine-coupled to CM5 chips for SPR; a soluble extracellular form is likely; In the functional rows it stands for the EphB4 of the ovarian cancer cells; also called rhEphB4; source: bought: R&D Systems
T3 sequence (looked up): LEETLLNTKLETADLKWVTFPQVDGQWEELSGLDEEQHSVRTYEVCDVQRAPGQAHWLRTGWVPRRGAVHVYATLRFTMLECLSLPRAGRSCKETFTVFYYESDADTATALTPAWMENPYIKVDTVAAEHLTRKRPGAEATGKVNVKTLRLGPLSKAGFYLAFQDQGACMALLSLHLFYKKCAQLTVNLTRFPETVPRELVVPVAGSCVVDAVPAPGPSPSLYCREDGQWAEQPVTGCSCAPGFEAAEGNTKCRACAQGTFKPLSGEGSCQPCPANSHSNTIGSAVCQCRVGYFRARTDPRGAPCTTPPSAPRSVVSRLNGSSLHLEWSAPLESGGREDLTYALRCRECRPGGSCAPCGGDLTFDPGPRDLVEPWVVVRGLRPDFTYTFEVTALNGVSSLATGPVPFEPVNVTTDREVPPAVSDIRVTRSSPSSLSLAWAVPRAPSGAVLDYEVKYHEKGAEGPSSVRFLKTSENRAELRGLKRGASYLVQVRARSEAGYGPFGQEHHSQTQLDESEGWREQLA

[4] = molecular target: T4, recombinant human EphB4 (human), P54760; experiment: as above
T4 chain: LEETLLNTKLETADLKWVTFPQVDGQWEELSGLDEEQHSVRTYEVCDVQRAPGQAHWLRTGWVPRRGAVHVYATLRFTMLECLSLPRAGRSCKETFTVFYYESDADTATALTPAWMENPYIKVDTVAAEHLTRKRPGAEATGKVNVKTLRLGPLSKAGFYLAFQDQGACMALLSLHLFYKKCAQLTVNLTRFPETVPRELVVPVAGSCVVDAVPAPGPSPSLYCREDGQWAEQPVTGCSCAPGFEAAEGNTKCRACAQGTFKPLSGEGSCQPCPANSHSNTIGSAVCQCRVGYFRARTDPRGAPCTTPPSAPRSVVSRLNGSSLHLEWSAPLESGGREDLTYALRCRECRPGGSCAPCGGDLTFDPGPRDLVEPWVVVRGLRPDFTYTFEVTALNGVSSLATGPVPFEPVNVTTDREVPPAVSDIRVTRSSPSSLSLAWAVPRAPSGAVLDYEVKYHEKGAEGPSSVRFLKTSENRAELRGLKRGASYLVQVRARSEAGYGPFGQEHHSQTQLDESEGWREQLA

## CC[C@H](C)[C@H](NC(=O)[C@@H]1CCCN1C(=O)CNC(=O)[C@H](CC(N)=O)NC(=O)[C@@H]1CCCN1C(=O)[C@H](CO)NC(=O)[C@@H](Cc1ccccc1)NC(=O)[C@H](CC(C)C)NC(=O)[C@H](Cc1ccc(O)cc1)NC(=O)[C@H](CC(N)=O)NC(=O)[C@@H](N)[C@@H](C)O)C(=O)N[C@@H](C)C(=O)N[C@@H](CCCNC(=N)N)C(=O)N[C@@H](C)C(=O)N[C@@H](Cc1c[nH]c2ccccc12)C(N)=O [B4-005] (H-TNYL[dF]SPNGPIARAW-NH2)
EphB4
  Kd: 75 nM

## TNYLFSPNGPIARAW-NH2 [TNYL-RAW]
[1]
  area-under-the time curve [AUC]: 29.1 %ID h/mL

## YSA-TNYL-RAW-dimer [B4-003]
EphB4
  Kd: 21 nM

## TNYLFSPNGPIARA-NH2 [B4-008]
EphB4
  Kd: 13 nM

## CC[C@H](C)[C@H](NC(=O)[C@@H]1CCCN1C(=O)CNC(=O)[C@H](CC(N)=O)NC(=O)[C@@H]1CCCN1C(=O)[C@H](CO)NC(=O)[C@H](Cc1ccccc1)NC(=O)[C@H](CC(C)C)NC(=O)[C@H](Cc1ccc(O)cc1)NC(=O)[C@H](CC(N)=O)NC(=O)[C@@H](N)[C@@H](C)O)C(=O)N[C@@H](C)C(=O)N[C@H](CCCNC(=N)N)C(=O)N[C@@H](C)C(=O)N[C@@H](Cc1c[nH]c2ccccc12)C(N)=O [B4-002]
EphB4
  Kd: 39 nM

## CC[C@H](C)[C@H](NC(=O)[C@@H]1CCCN1C(=O)CNC(=O)[C@H](CC(N)=O)NC(=O)[C@@H]1CCCN1C(=O)[C@H](CO)NC(=O)[C@H](Cc1ccccc1)NC(=O)[C@@H](CC(C)C)NC(=O)[C@H](Cc1ccc(O)cc1)NC(=O)[C@H](CC(N)=O)NC(=O)[C@@H](N)[C@@H](C)O)C(=O)N[C@@H](C)C(=O)N[C@@H](CCCNC(=N)N)C(=O)N[C@@H](C)C(=O)N[C@@H](Cc1c[nH]c2ccccc12)C(N)=O [B4-004] (H-TNY[dL]FSPNGPIARAW-NH2)
EphB4
  Kd: 65 nM

B1: BIDEN-AP (bi-directional ephrin agonist peptide), TNd(Y)LFSPNGPIARAW (peptide)
peptide: TN[dY]LFSPNGPIARAW
notes: TNYL-RAW with L-Tyr-P3 replaced by D-Tyr; source: synthetic peptide
[2]
  Kd: 7 nM
[3]
  IC50: 4 nM

B2: TNYL-RAW (peptide)
peptide: TNYLFSPNGPIARAW
notes: known EphB4 antagonist peptide, 15 residues (P1-P15); Made on Rink resin, so a C-terminal amide is likely; source: synthetic peptide (solid phase, Rink resin, HPLC purified)
Recombinant human EphB4
  Kd: 3.1 nM

B3: Cyclo(KTNYLFSPNGPIARAWD) (peptide)
peptide: KTNYLFSPNGPIARAWD
modifications: also: cyclic, ring bond not given here
notes: TNYL-RAW with an added Lys before and Asp after it, cyclised; MW 1932 Da; also called B4-001; source: synthetic peptide (solid phase, Rink resin, HPLC purified)
Recombinant human EphB4
  Kd: 4.4 nM

## TNYLFSPNGPIARAW (modifications not checked) [YSA-TNYL-RAW-dimer]
[4]
  Kd: 21 nM
